Assay results published in patent US9371335B2, “Spirothienopyran-piperidine derivatives as ORL-1 receptor antagonists for their use in the treatment of alcohol dependence and abuse” (Eli Lilly and Company, priority 2011, dated 2016).
Values joined by “and” are separate entries in the source; they are usually repeats but may differ in a detail not shown here. Equal values may be shown once.

Experiments:
P rats = assay: Free-choice ethanol self-administration in P rats; type: in vivo, rat; conditions: for Mean EtOH Consumed in g/kg (Drug-treated) / Reduction vs. Vehicle (EtOH consumed): P rats, 12 hr
Description: Free-Choice Ethanol Self-Administration in Alcohol-Preferring Rats: P Rats:
In this procedure (modified from Rodd-Henricks Z A, McKinzie D L, Shaikh S R, Murphy J M, McBride W J, Lumeng L and Li T K (2000) Alcohol deprivation effect is prolonged in the alcohol preferring (P) rat after repeated deprivations. Alcohol Clin Exp Res 24:8-16), female P rats are obtained from a private colony (Taconic, Germantown, N.Y.), individually-housed with food, 15% ethanol (v/v, in water), and water available ad libitum, and maintained on a 12 hr. light/dark cycle (lights off at 16:00). The chambers are equipped with a force transduction system (TSE Systems, Bad Homburg, Germany) attached to the ethanol, water, and food receptacles to enable continuous monitoring of food and liquid consumption. Rats voluntarily consume 15% ethanol with a mean daily intake of roughly 5 g/kg for several months prior to drug testing. Rats are treated orally with vehicle or test compounds in the dose range of 3, 10, or 30 mg/kg (3 mL/kg dose volume, dissolved in a vehicle consisting of 20% Captisol® in 25 mM phosphate buffer at pH=2), or naltrexone (10 mg/kg, 1 mL/kg dose volume, dissolved in water) immediately prior to the onset of the dark cycle, using a within-subjects, crossover design (3-4 day washout between subsequent doses). In a separate experiment, rats receive oral administration of vehicle followed by 4 daily oral doses of vehicle or 30 mg/kg test compound immediately prior to the onset of the dark cycle, using a between-subjects design.

[1] = tested on: Alcohol-Preferring (P) rats; assay: Operant ethanol self-administration in P rats (progressive ratio schedule); type: in vivo, rat; conditions: female P rats, 10 mg/kg oral
Description: Operant Self-Administration in P rats:
Female P rats are obtained and pair-housed from a private colony (Taconic, Germantown, N.Y.). In order to reduce novelty-induced avoidance of ethanol, the water bottle on the homecage is replaced with a bottle containing 15% ethanol in water (v/v, in water) for two days prior to operant training. Throughout the rest of the experiment, rats receive ad libitum access to water and standard laboratory chow, with no further access to ethanol in the homecage.
Rats are trained to press a lever for ethanol reinforcement in daily 30-min sessions conducted in standard rat operant chambers contained within sound-attenuating chambers (MED Associates, Inc., St. Albans, Vt.). The chambers consist of two stainless steel and two clear Plexiglas walls. The floor grid of the operant chambers consists of 0.5 cm diameter stainless steel bars placed approximately 1.5 cm apart. Each operant chamber contains two retractable operant levers located approximately 6 cm above the grid floor and 13 cm apart. A recessed trough is located in the space between the levers, through which a dipper cup (0.1 mL capacity) is raised to deliver response-contingent ethanol (15%, v/v, in water). Upon a reinforced response, a stimulus light is illuminated above the lever on which the response was made throughout the 4-sec dipper cup access. Operation of the stimuli and behavioral responses are controlled and recorded by personal computer for offline analysis (MED Associates, Inc., St. Albans, Vt.).
During operant training, responses on either lever are considered correct responses and are rewarded with 0.1 mL ethanol reinforcement. […] Once stable baseline responding is reached on an FR-1 schedule of reinforcement, the response contingency is increased to FR-2 and then again to FR-3 so that 3 lever presses are required for each reinforcement. […] Specifically, the response requirement is increased as follows: all rats begin each session at an FR-1 schedule of reinforcement; after three reinforcements, the schedule is increased to FR-2; after three reinforcements at that level, the schedule is increased by two to FR-4; after three reinforcements, the schedule is increased by two to FR-6; and so on (see for e.g. Oster S M, Toalston J E, Kuc K A, Pommer T J, Murphy J M, Lumeng L, Bell R L, McBride W J and Rodd Z A (2006) Effects of multiple alcohol deprivations on operant ethanol self-administration by high-alcohol-drinking replicate rat lines. Alcohol 38:155-164). Each session lasts a total of 30 min, after which, all stimuli are turned off and levers are retracted. […] The amount of ethanol consumed is calculated from the number of active lever presses, and converted into g/kg EtOH consumed. Rats receive oral administration of vehicle or test compound in the dose range of 3, 10, or 30 mg/kg (3 mL/kg dose volume, dissolved in a vehicle consisting of 20% Captisol® in 25 mM phosphate buffer at pH=2), or the nonselective opioid receptor antagonist naltrexone (10 mg/kg) as a positive control, 60 min. prior to the session, using a within-subjects, crossover design (3-4 day washout between subsequent doses). On a separate occasion, rats receive oral administration of vehicle or 30 mg/kg test compound (1 mL/kg dose volume, dissolved in a vehicle consisting of 20% Captisol® in 25 mM phosphate buffer), 30 min prior to the session, using a crossover design.

## Cc1nn(-c2c(F)cccc2F)cc1CN1CCC2(CC1)OCC(F)(F)c1cc(Cl)sc12 [Compound 5, 2-chloro-1′-[[l-(2,6-difluorophenyl)-3-methyl-pyrazol-4-yl]methyl]-4,4-difluoro-spiro[5H-thieno[2,3-c]pyran-7,4′-piperidine]]
P rats; 3 mg/kg oral
  Mean EtOH Consumed in g/kg (Drug-treated): 4.39 g/kg
  Reduction vs. Vehicle (EtOH consumed): 15.0%
P rats; 10 mg/kg oral
  Mean EtOH Consumed in g/kg (Drug-treated): 4.05 g/kg
  Reduction vs. Vehicle (EtOH consumed): 21.5%
P rats; 30 mg/kg oral
  Mean EtOH Consumed in g/kg (Drug-treated): 3.74 g/kg
  Reduction vs. Vehicle (EtOH consumed): 27.6%
P rats; free-choice access, P rats and msP rats, result in words
  ethanol self-administration: significantly reduce ethanol self-administration

## O=C1CC[C@@]2(O)[C@H]3Cc4ccc(O)c5c4[C@@]2(CCN3CC2CC2)[C@H]1O5 [naltrexone, reference compound]
[1]
  Reduction vs. Vehicle (lever presses): 75.4%
[1]; 30-min progressive ratio session
  Mean Number of Lever Presses (Drug-treated): 106.33
P rats; 10 mg/kg oral, 10 mg/kg
  Mean EtOH Consumed in g/kg (Drug-treated): 3.30 g/kg and 2.83 g/kg and 3.31 g/kg
  Reduction vs. Vehicle (EtOH consumed): 30.2% and 45.0% and 36.0%
